Counter-ions that a name gives are not always drawn.
Key:
CHIKV replicon = assay: microbe, parasite or virus in culture; type: cell-based, Chikungunya virus (CHIKV)

## Oc1ccc(/C=C/c2cc(O)cc(O)c2)cc1 [Resveratrol]
SFV-Rluc
  SFV replication % left (surviving fraction, remaining percentage of SFV replication): 103.4%
CHIKV replicon
  CHIKV replicon % left: 79.8%

## COc1cc(O)c2c(=O)c(O)c(-c3ccc(O)c(O)c3)oc2c1 [Rhamnetin]
SFV-Rluc
  SFV replication % left (surviving fraction, remaining percentage of SFV replication): 119.1%
CHIKV replicon
  CHIKV replicon % left: 94.7%

## Cc1cc2nc3c(=O)[nH]c(=O)nc-3n(C[C@H](O)[C@H](O)[C@H](O)CO)c2cc1C [Riboflavin]
SFV-Rluc
  SFV replication % left (surviving fraction, remaining percentage of SFV replication): 43.1%
CHIKV replicon
  CHIKV replicon % left: 63.1%

## O=C(/C=C/c1ccc(O)c(O)c1)O[C@H](Cc1ccc(O)c(O)c1)C(=O)O [Rosmarinic acid]
SFV-Rluc
  SFV replication % left (surviving fraction, remaining percentage of SFV replication): 120.3%
CHIKV replicon
  CHIKV replicon % left: 98.8%

## C[C@@H]1O[C@@H](OC[C@H]2O[C@@H](Oc3c(-c4ccc(O)c(O)c4)oc4cc(O)cc(O)c4c3=O)[C@H](O)[C@@H](O)[C@@H]2O)[C@H](O)[C@H](O)[C@H]1O [Rutin]
SFV-Rluc
  SFV replication % left (surviving fraction, remaining percentage of SFV replication): 44.1%
CHIKV replicon
  CHIKV replicon % left: 49.5%

## CC(C)(C)NCC(O)c1ccc(O)c(CO)c1 (stereo not shown) [Salbutamol]
SFV-Rluc
  SFV replication % left (surviving fraction, remaining percentage of SFV replication): 151.4%
CHIKV replicon
  CHIKV replicon % left: 78.4%

## NC(=O)c1ccccc1O [Salicylamide]
SFV-Rluc
  SFV replication % left (surviving fraction, remaining percentage of SFV replication): 126.2%
CHIKV replicon
  CHIKV replicon % left: 38.2%

## O=C(O)c1ccccc1O [Salicylic acid]
SFV-Rluc
  SFV replication % left (surviving fraction, remaining percentage of SFV replication): 69.1%
CHIKV replicon
  CHIKV replicon % left: 78.2%

## O=C(Oc1ccccc1C(=O)O)c1ccccc1O [Salicylsalicylic acid]
SFV-Rluc
  SFV replication % left (surviving fraction, remaining percentage of SFV replication): 127.4%
CHIKV replicon
  CHIKV replicon % left: 88.9%

## CC1=C2[C@H]3OC(=O)[C@@H](C)[C@@H]3CC[C@@]2(C)C=CC1=O [Santonin]
SFV-Rluc
  SFV replication % left (surviving fraction, remaining percentage of SFV replication): 99.9%
CHIKV replicon
  CHIKV replicon % left: 101.9%

## COc1cc2ccc(=O)oc2cc1O [Scopoletin]
SFV-Rluc
  SFV replication % left (surviving fraction, remaining percentage of SFV replication): 81.9%
CHIKV replicon
  CHIKV replicon % left: 95.4%

## C#CCN(C)[C@H](C)Cc1ccccc1 [Selegiline hydrochloride]
SFV-Rluc
  SFV replication % left (surviving fraction, remaining percentage of SFV replication): 57.0%
CHIKV replicon
  CHIKV replicon % left: 43.1%

## COc1cc(/C=C/C(=O)O)cc(OC)c1O [Sinapic acid]
SFV-Rluc
  SFV replication % left (surviving fraction, remaining percentage of SFV replication): 22.0%
CHIKV replicon
  CHIKV replicon % left: 51.4%

## C=CC/C(=N/OS(=O)(=O)[O-])S[C@@H]1O[C@H](CO)[C@@H](O)[C@H](O)[C@H]1O.O.[K+] [Sinigrin monohydrate]
SFV-Rluc
  SFV replication % left (surviving fraction, remaining percentage of SFV replication): 47.6%
CHIKV replicon
  CHIKV replicon % left: 99.2%

## CC(C)NCC(O)c1ccc(NS(C)(=O)=O)cc1 (stereo not shown) [Sotalol hydrochloride]
SFV-Rluc
  SFV replication % left (surviving fraction, remaining percentage of SFV replication): 100.5%
CHIKV replicon
  CHIKV replicon % left: 80.1%

## CC(=O)NS(=O)(=O)c1ccc(N)cc1 [Sulfacetamide]
SFV-Rluc
  SFV replication % left (surviving fraction, remaining percentage of SFV replication): 100.8%
CHIKV replicon
  CHIKV replicon % left: 50.4%

## Nc1ccc(S(=O)(=O)Nc2ncccn2)cc1 [Sulfadiazine]
SFV-Rluc
  SFV replication % left (surviving fraction, remaining percentage of SFV replication): 107.7%
CHIKV replicon
  CHIKV replicon % left: 81.2%

## COc1cc(NS(=O)(=O)c2ccc(N)cc2)nc(OC)n1 [Sulfadimethoxine]
SFV-Rluc
  SFV replication % left (surviving fraction, remaining percentage of SFV replication): 102.4%
CHIKV replicon
  CHIKV replicon % left: 39.1%

## CCc1nnc(NS(=O)(=O)c2ccc(N)cc2)s1 [Sulfaethidole]
SFV-Rluc
  SFV replication % left (surviving fraction, remaining percentage of SFV replication): 106.4%
CHIKV replicon
  CHIKV replicon % left: 100.4%

## [H]/N=C(/N)NS(=O)(=O)c1ccc(N)cc1 [Sulfaguanidine]
SFV-Rluc
  SFV replication % left (surviving fraction, remaining percentage of SFV replication): 63.5%
CHIKV replicon
  CHIKV replicon % left: 62.1%

## Cc1ccnc(NS(=O)(=O)c2ccc(N)cc2)n1 [Sulfamerazine]
SFV-Rluc
  SFV replication % left (surviving fraction, remaining percentage of SFV replication): 83.8%
CHIKV replicon
  CHIKV replicon % left: 91.1%

## COc1cnc(NS(=O)(=O)c2ccc(N)cc2)nc1 [Sulfameter]
SFV-Rluc
  SFV replication % left (surviving fraction, remaining percentage of SFV replication): 99.0%
CHIKV replicon
  CHIKV replicon % left: 79.2%

## Cc1cc(C)nc(NS(=O)(=O)c2ccc(N)cc2)n1 [Sulfamethazine]
SFV-Rluc
  SFV replication % left (surviving fraction, remaining percentage of SFV replication): 91.7%
CHIKV replicon
  CHIKV replicon % left: 100.5%

## Cc1nnc(NS(=O)(=O)c2ccc(N)cc2)s1 [Sulfamethizole]
SFV-Rluc
  SFV replication % left (surviving fraction, remaining percentage of SFV replication): 100.4%
CHIKV replicon
  CHIKV replicon % left: 79.1%

## Cc1cc(NS(=O)(=O)c2ccc(N)cc2)no1 [Sulfamethoxazole]
SFV-Rluc
  SFV replication % left (surviving fraction, remaining percentage of SFV replication): 77.5%
CHIKV replicon
  CHIKV replicon % left: 100.5%

## COc1ccc(NS(=O)(=O)c2ccc(N)cc2)nn1 [Sulfamethoxypyridazine]
SFV-Rluc
  SFV replication % left (surviving fraction, remaining percentage of SFV replication): 110.0%
CHIKV replicon
  CHIKV replicon % left: 82.0%

## Cc1nnc(NS(=O)(=O)c2ccc(N)cc2)s1 [Sulfamethylthiadiazole]
SFV-Rluc
  SFV replication % left (surviving fraction, remaining percentage of SFV replication): 89.6%
CHIKV replicon
  CHIKV replicon % left: 92.1%

## Cc1nc(NS(=O)(=O)c2ccc(N)cc2)oc1C [Sulfamoxole]
SFV-Rluc
  SFV replication % left (surviving fraction, remaining percentage of SFV replication): 83.0%
CHIKV replicon
  CHIKV replicon % left: 80.2%

## Nc1ccc(S(N)(=O)=O)cc1 [Sulfanilamide]
SFV-Rluc
  SFV replication % left (surviving fraction, remaining percentage of SFV replication): 64.2%
CHIKV replicon
  CHIKV replicon % left: 100.5%

## NC(=O)NS(=O)(=O)c1ccc(N)cc1.O [Sulfaninyl urea hydrate]
SFV-Rluc
  SFV replication % left (surviving fraction, remaining percentage of SFV replication): 120.2%
CHIKV replicon
  CHIKV replicon % left: 92.8%

## Cc1cnc(NS(=O)(=O)c2ccc(N)cc2)nc1 [Sulfaperine]
SFV-Rluc
  SFV replication % left (surviving fraction, remaining percentage of SFV replication): 127.8%
CHIKV replicon
  CHIKV replicon % left: 100.8%

## Nc1ccc(S(=O)(=O)Nc2ccccn2)cc1 [Sulfapyridine]
SFV-Rluc
  SFV replication % left (surviving fraction, remaining percentage of SFV replication): 95.0%
CHIKV replicon
  CHIKV replicon % left: 79.9%

## Nc1ccc(S(=O)(=O)Nc2nccs2)cc1 [Sulfathiazole]
SFV-Rluc
  SFV replication % left (surviving fraction, remaining percentage of SFV replication): 138.1%
CHIKV replicon
  CHIKV replicon % left: 78.5%

## Cc1noc(NS(=O)(=O)c2ccc(N)cc2)c1C [Sulfisoxazole]
SFV-Rluc
  SFV replication % left (surviving fraction, remaining percentage of SFV replication): 91.4%
CHIKV replicon
  CHIKV replicon % left: 104.5%

## CCS(=O)(=O)C(C)(C)S(=O)(=O)CC [Sulfonmethane]
SFV-Rluc
  SFV replication % left (surviving fraction, remaining percentage of SFV replication): 86.6%
CHIKV replicon
  CHIKV replicon % left: 102.7%

## COc1cc(C(=O)O)cc(OC)c1O [Syringic acid]
SFV-Rluc
  SFV replication % left (surviving fraction, remaining percentage of SFV replication): 61.1%
CHIKV replicon
  CHIKV replicon % left: 54.4%

## CC(C)(C)NCC(O)COc1ccc(NC(=O)NC2CCCCC2)cc1 (stereo not shown) [Talinolol]
SFV-Rluc
  SFV replication % left (surviving fraction, remaining percentage of SFV replication): 76.9%
CHIKV replicon
  CHIKV replicon % left: 91.8%

## CN1C(=O)C(O)N=C(c2ccccc2)c2cc(Cl)ccc21 (stereo not shown) [Temazepam]
SFV-Rluc
  SFV replication % left (surviving fraction, remaining percentage of SFV replication): 91.5%
CHIKV replicon
  CHIKV replicon % left: 79.5%

## CC(C)(C)NCC(O)c1cc(O)cc(O)c1.CC(C)(C)NCC(O)c1cc(O)cc(O)c1.O=S(=O)(O)O (stereo not shown) [Terbutaline hemisulfate salt]
SFV-Rluc
  SFV replication % left (surviving fraction, remaining percentage of SFV replication): 97.5%
CHIKV replicon
  CHIKV replicon % left: 87.2%

## CCCCNc1ccc(C(=O)OCCN(C)C)cc1 [Tetracaine hydrochloride]
SFV-Rluc
  SFV replication % left (surviving fraction, remaining percentage of SFV replication): 102.8%
CHIKV replicon
  CHIKV replicon % left: 71.1%

## Cn1cnc2c1c(=O)[nH]c(=O)n2C [Theobromine]
SFV-Rluc
  SFV replication % left (surviving fraction, remaining percentage of SFV replication): 112.1%
CHIKV replicon
  CHIKV replicon % left: 70.2%

— paper PMC3242765, “Inhibitors of Alphavirus Entry and Replication Identified with a Stable Chikungunya Replicon Cell Line and Virus-Based Assays” (PLoS ONE, 2011)
